Assay results reported in patent US20240360146A1, “BRUTON'S TYROSINE KINASE AND MUTANT DEGRADER, COMPOSITION AND APPLICATION THEREOF” (HANGZHOU HEALZEN THERAPEUTICS CO., LTD., priority 2021, published 2024).

Legend:
[1] = molecular target: T1, BTK (Homo sapiens, UniProt Q06187); assay: BTK degradation activity test in Mino cells; assay type: cell-based; conditions: 16 h incubation, Western blot or Elisa
T1 construct: endogenous in cells; host or cells: Mino cells
Method in brief: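 DC50 derived by curve fitting of BTK degradation rates versus untreated control across compound concentrations. Mino cells were exposed for 16 h; BTK levels in lysates, normalised via BCA protein, measured by Western blot or ELISA.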

[2] = system: OCI-LY10 cells; assay: Inhibitory activity on OCI-LY10 cell proliferation (MTS); assay type: cell-based; conditions: Homo sapiens, 72 h
Protocol: (§1) The anti-tumor efficacy of the compounds was tested by measuring their inhibitory effects on OCI-LY10 and Mino cell proliferation. OCI-LY10 and Mino cells were cultured in RPMI-1640 medium containing 10% fetal calf serum. OCI-LY10 and Mino cells were digested, inoculated in a 96-well plate at a cell concentration of 10000 cells/well, and incubated overnight at 37° C., 5% CO2. Compounds of different concentrations (1000 nM, 4-fold dilution, 8 points) were added to the 96-well plate and incubated for 72 h (LY10) or 168 h (Mino) at 37° C. and 5% CO2, and then 20 uL of MTS was added to each well. After incubation for 2 h, 25 μl of 10% SDS was added to each well to terminate the reaction. The absorbance at 490 nm and 650 nm were measured with a microplate reader. IC50 was calculated using GraphPad Prism 5.0.

[3] = system: Mino cells; assay: Inhibitory activity on Mino cell proliferation (MTS); assay type: cell-based; conditions: Homo sapiens, 168 h incubation
Protocol: as §1

[4] = Stability of compounds in human liver microsome; assay type: in vitro ADME; conditions: human liver microsomes, NADPH, 37° C., sampling 0-120 min; read-out: Human liver microsome T1/2
Protocol: Compound to be tested: the compound to be tested (1 mg) was dissolved in DMSO (10 mL) to formulate to 0.1 mg/mL.
Internal standard compound: the internal standard compound (1 mg) was dissolved in DMSO (10 mL), 10 μL was taken and diluted to 10 mL to formulate to 100 ng/mL.
NADPH solution: NADPH (2.08 mg) was dissolved in PBS (50 μL) buffer to formulate to 50 mM.
Under the condition of ice bath, 1 mg of human liver microparticles was add to PBS (1 mL) buffer, then NADPH (20 μL) was added, and incubated at 37° C. for 5 min. 10 μL of the compound to be tested was added, and then samples were taken at 0, 15, 30, 60 and 120 min respectively. 10 μL of the solution was taken with a pipette each time and added to 490 μL of the solution containing the internal standard compound. The resulting solution was vortexed and then placed on ice, and then sampling at another time point continues. All samples were centrifuged at 10,000 rpm for 10 min, and the supernatant was taken for LC/MS testing. The metabolism of the compound in liver microsomes was calculated based on the peak area.

T1 sequence (Q06187 whole entry): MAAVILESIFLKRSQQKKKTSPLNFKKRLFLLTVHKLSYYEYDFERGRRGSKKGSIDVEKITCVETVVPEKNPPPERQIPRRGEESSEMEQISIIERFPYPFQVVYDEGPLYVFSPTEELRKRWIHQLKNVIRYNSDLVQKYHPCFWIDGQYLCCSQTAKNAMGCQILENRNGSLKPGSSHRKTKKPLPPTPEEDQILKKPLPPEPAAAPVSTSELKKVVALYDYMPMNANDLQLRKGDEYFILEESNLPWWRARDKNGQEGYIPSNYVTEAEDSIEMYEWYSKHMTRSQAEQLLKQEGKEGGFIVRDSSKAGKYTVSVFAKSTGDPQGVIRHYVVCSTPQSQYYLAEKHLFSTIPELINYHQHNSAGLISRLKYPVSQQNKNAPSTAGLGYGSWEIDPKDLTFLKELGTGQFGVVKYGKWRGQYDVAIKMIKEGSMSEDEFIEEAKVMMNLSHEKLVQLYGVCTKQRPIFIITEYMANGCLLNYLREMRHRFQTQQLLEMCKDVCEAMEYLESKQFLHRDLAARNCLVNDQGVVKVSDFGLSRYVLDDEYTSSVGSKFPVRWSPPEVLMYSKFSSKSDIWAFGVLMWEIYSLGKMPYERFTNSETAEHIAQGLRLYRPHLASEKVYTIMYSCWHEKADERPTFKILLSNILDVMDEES

| SMILES | DC50 [1] [nM] | IC50 [2] [nM] | half-life at 0.97 µg/mL [4] [min] | IC50 [3] [nM] |
| --- | --- | --- | --- | --- |
| CN1CCN([C@@H]2CCCN(c3nnc(C(N)=O)c(Nc4ccc(C5CCN(CC6(F)CCN(c7ccc8c(c7)C(=O)N(C7CCC(=O)NC7=O)C8=O)C6)CC5)cc4)n3)C2)C1=O (stereo partly drawn) [Compound 121, 5-((4-(1-((1-(2-(2,6-dioxopiperidin-3-yl)-1,3-dioxoisoindolin-5-yl)-3-fluoropyrrolidin-3-yl)methyl)piperidin-4-yl)phenyl)amino)-3-((R)-3-(3-methyl-2-oxoimidazolin-1-yl)piperidin-1-yl)-1,2,4-triazin-6-carboxamide] | < 1 | 0.74 |  | 3.75 |
| CN1CCN([C@@H]2CCCN(c3nnc(C(N)=O)c(Nc4ccc(C5CCN(CC6CCN(c7ccc8c(c7)C(=O)N(C7CCC(=O)NC7=O)C8=O)C6)CC5)cc4)n3)C2)C1=O (stereo partly drawn) [Compound 124, 5-((4-(1-((1-(2-(2,6-dioxopiperidin-3-yl)-1,3-dioxoisoindolin-5-yl)pyrrolidin-3-yl)methyl)piperidin-4-yl)phenyl)amino)-3-((R)-3-(3-methyl-2-oxoimidazolin-1-yl)piperidin-1-yl)-1,2,4-triazin-6-carboxamide] | < 1 | < 0.26 |  | 4.95 |
| CN1CCN([C@@H]2CCCN(c3nnc(C(N)=O)c(Nc4ccc(C5CCN(C(=O)C6CCN(c7ccc8c(c7)C(=O)N(C7CCC(=O)NC7=O)C8=O)C6)CC5)cc4)n3)C2)C1=O (stereo partly drawn) [Compound 127, 5-((4-(1-(1-(2-(2,6-dioxopiperidin-3-yl)-1,3-dioxoisoindolin-5-yl)pyrrolidin-3-carbonyl)piperidin-4-yl)phenyl)amino)-3-((R)-3-(3-methyl-2-oxoimidazolin-1-yl)piperidin-1-yl)-1,2,4-triazin-6-carboxamide] | < 1 | 0.39 |  | 2.04 |
| CN1CCN([C@@H]2CCCN(c3nnc(C(N)=O)c(Nc4ccc(C5CCN(CC6CCN(c7ccc8c(c7)C(=O)N(C7CCC(=O)NC7=O)C8=O)CC6)CC5)c(F)c4)n3)C2)C1=O (stereo partly drawn) [Compound 129, 5-((4-(1-((1-(2-(2,6-dioxopiperidin-3-yl)-1,3-dioxoisoindolin-5-yl)piperidin-4-yl)methyl)piperidin-4-yl)-3-fluorophenyl)amino)-3-((R)-3-(3-methyl-2-oxoimidazolin-1-yl)piperidin-1-yl)-1,2,4-triazin-6-carboxamide] | < 1 | 0.14 |  | 3.09 |
| CN1CCN([C@@H]2CCCN(c3nnc(C(N)=O)c(Nc4ccc(N5CCN(CC6CCN(c7ccc8c(c7)CN(C7CCC(=O)NC7=O)C8=O)CC6)CC5)c(F)c4)n3)C2)C1=O (stereo partly drawn) [Compound 167, 5-((4-(4-((1-(2-(2,6-dioxopiperidin-3-yl)-1-oxoisoindolin-5-yl)piperidin-4-yl)methyl)piperazin-1-yl)-3-fluorophenyl)amino)-3-((R)-3-(3-methyl-2-oxoimidazolidin-1-yl)piperidin-1-yl)-1,2,4-triazin-6-carboxamide] | < 1 | 0.45 |  | 2.42 |
| Cc1cc(N2CCC(CN3CCN(c4ccc(Nc5nc(N6CCC[C@@H](N7CCN(C)C7=O)C6)nnc5C(N)=O)cc4F)CC3)CC2)ccc1C(=O)NC1CCC(=O)NC1=O (stereo partly drawn) [Compound 180, 5-((4-(4-((1-(4-((2,6-dioxopiperidin-3-yl)carbamoyl)-3-methylphenyl)piperidin-4-yl)methyl)piperazin-1-yl)-3-fluorophenyl)amino)-3-((R)-3-(3-methyl-2-oxoimidazolidin-1-yl)piperidin-1-yl)-1,2,4-triazin-6-carboxamide] | < 1 | < 1 |  | 1.07 |
| CN1CCN([C@@H]2CCCN(c3nnc(C(N)=O)c(Nc4ccc(N5CCN(CC6CCN(c7ccc(N8CCC(=O)NC8=O)cn7)CC6)CC5)c(F)c4)n3)C2)C1=O [Compound 196, (R)-5-((4-(4-((1-(5-(2,4-dioxotetrahydropyrimidin-1(2H)-yl)pyridin-2-yl)piperidin-4-yl)methyl)piperazin-1-yl)-3-fluorophenyl)amino)-3-(3-(3-methyl-2-oxoimidazolidin-1-yl)piperidin-1-yl)-1,2,4-triazin-6-carboxamide] | < 1 | 0.52 |  | 3.77 |
| CN1CCN([C@@H]2CCCN(c3nnc(C(N)=O)c(Nc4ccc(N5CCN(CC6CCN(c7ccc(NC8CCC(=O)NC8=O)cn7)CC6)CC5)c(F)c4)n3)C2)C1=O (stereo partly drawn) [Compound 203, 5-((4-(4-((1-(5-((2,6-dioxopiperidin-3-yl)amino)pyridin-2-yl)piperidin-4-yl)methyl)piperazin-1-yl)-3-fluorophenyl)amino)-3-((R)-3-(3-methyl-2-oxoimidazolidin-1-yl)piperidin-1-yl)-1,2,4-triazin-6-carboxamide] | < 1 | 2.65 |  | 1.25 |

Further lines, with some results ahead:

| DC50 [1] [nM] | IC50 [2] [nM] | half-life at 0.97 µg/mL [4] [min] | SMILES | IC50 [3] [nM] |
| --- | --- | --- | --- | --- |
| < 1 | 0.08 |  | CN1C(=O)N([C@@H]2CCCN(c3nnc(C(N)=O)c(Nc4ccc(C5CCN(CC6CCN(c7ccc8c(c7)C(=O)N(C7CCC(=O)NC7=O)C8=O)CC6)CC5)cc4)n3)C2)CC12CC2 (stereo partly drawn) [Compound 138, 5-((4-(1-((1-(2-(2,6-dioxopiperidin-3-yl)-1,3-dioxoisoindolin-5-yl)piperidin-4-yl)methyl)piperidin-4-yl)phenyl)amino)-3-((R)-3-(4-methyl-5-oxo-4,6-diazaspiro[2.4]heptan-6-yl)piperidin-1-yl)-1,2,4-triazin-6-carboxamide] | 3.11 |
| < 1 | 2.19 |  | NC(=O)c1nnc(N2CCC[C@@H](N3CCN(CC(F)(F)F)C3=O)C2)nc1Nc1ccc(C2CCN(CC3CCN(c4ccc5c(c4)C(=O)N(C4CCC(=O)NC4=O)C5=O)CC3)CC2)cc1 (stereo partly drawn) [Compound 141, 5-((4-(1-((1-(2-(2,6-dioxopiperidin-3-yl)-1,3-dioxoisoindolin-5-yl)piperidin-4-yl)methyl)piperidin-4-yl)phenyl)amino)-3-((R)-3-(2-oxo-3-(2,2,2-trifluoroethyl)imidazolin-1-yl)piperidin-1-yl)-1,2,4-triazin-6-carboxamide] | 3.92 |
| < 1 | 0.79 |  | CN1CCN([C@@H]2CCCN(c3nnc(C(N)=O)c(Nc4ccc(N5CCN(CC6CCN(c7ccc8c(c7)C(=O)N(C7CCC(=O)NC7=O)C8)CC6)CC5)c(F)c4)n3)C2)C1=O (stereo partly drawn) [Compound 168, 5-((4-(4-((1-(2-(2,6-dioxopiperidin-3-yl)-3-oxoisoindolin-5-yl)piperidin-4-yl)methyl)piperazin-1-yl)-3-fluorophenyl)amino)-3-((R)-3-(3-methyl-2-oxoimidazolidin-1-yl)piperidin-1-yl)-1,2,4-triazin-6-carboxamide] | 3.77 |
| < 1 | 1.25 |  | CN1CCN([C@@H]2CCCN(c3nnc(C(N)=O)c(Nc4ccc(N5CCN(CC6CCN(c7cc8c(cc7F)C(=O)N(C7CCC(=O)NC7=O)C8=O)CC6)CC5)c(F)c4)n3)C2)C1=O (stereo partly drawn) [Compound 170, 5-((4-(4-((1-(2-(2,6-dioxopiperidin-3-yl)-6-fluoro-1,3-dioxoisoindolin-5-yl)piperidin-4-yl)methyl)piperazin-1-yl)-3-fluorophenyl)amino)-3-((R)-3-(3-methyl-2-oxoimidazolidin-1-yl)piperidin-1-yl)-1,2,4-triazin-6-carboxamide] | 4.64 |
| < 1 |  | > 30 | CN1CCN([C@@H]2CCCN(c3nnc(C(N)=O)c(Nc4ccc(N5CCN(CC6CCN(c7ccc(C(=O)NC8CCC(=O)NC8=O)nc7)C6)CC5)c(F)c4)n3)C2)C1=O (some centres unmarked) [Compound 173] |  |
| < 1 | 1.05 |  | CN1CCN([C@@H]2CCCN(c3nnc(C(N)=O)c(Nc4ccc(N5CCN(CC6CCN(c7ccc(NC8CCC(=O)NC8=O)nc7)CC6)CC5)c(F)c4)n3)C2)C1=O (stereo partly drawn) [Compound 202, 5-((4-(4-((1-(6-((2,6-dioxopiperidin-3-yl)amino)pyridin-3-yl)piperidin-4-yl)methyl)piperazin-1-yl)-3-fluorophenyl)amino)-3-((R)-3-(3-methyl-2-oxoimidazolidin-1-yl)piperidin-1-yl)-1,2,4-triazin-6-carboxamide] | 6.83 |
